Results on three molecules are retold here after ChEMBL document CHEMBL1152560, “Substituted 2-arylbenzothiazoles as kinase inhibitors: hit-to-lead optimization” (Bioorg Med Chem, 2009).

Assay [1] concerns the target Serine/threonine-protein kinase Chk2 (Homo sapiens) (UniProt O96017). Put plainly: Residual activity of CHK2 at 0.1 uM by microplate scintillation counting.
Assay [2] has as its target T1, NUAK family SNF1-like kinase 2 (Homo sapiens) (UniProt Q9H093).
T1 sequence (whole entry): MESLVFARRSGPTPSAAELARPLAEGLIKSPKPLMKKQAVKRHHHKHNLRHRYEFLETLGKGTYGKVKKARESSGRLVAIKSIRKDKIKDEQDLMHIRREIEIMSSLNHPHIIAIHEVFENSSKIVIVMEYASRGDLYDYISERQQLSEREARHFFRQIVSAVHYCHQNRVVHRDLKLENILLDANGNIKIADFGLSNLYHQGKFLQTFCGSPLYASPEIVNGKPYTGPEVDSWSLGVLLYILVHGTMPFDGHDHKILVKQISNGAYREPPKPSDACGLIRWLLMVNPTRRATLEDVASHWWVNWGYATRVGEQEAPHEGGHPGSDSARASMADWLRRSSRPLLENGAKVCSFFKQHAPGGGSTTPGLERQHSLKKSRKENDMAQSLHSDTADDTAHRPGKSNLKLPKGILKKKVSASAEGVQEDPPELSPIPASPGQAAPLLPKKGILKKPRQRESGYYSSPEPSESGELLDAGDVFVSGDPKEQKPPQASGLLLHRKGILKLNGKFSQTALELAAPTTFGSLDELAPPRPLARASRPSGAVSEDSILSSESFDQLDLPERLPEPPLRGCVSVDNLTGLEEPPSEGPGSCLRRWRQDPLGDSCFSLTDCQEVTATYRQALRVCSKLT
Put plainly: Residual activity of SNARK at 1 uM by microplate scintillation counting.

The target of assay [3] is Insulin-like growth factor 1 receptor (Homo sapiens) (UniProt P08069). Description: Residual activity of IGF1R at 0.1 uM by microplate scintillation counting.
Insulin-like growth factor 1 receptor (Homo sapiens), sequence (P08069 31-736 limits assumed): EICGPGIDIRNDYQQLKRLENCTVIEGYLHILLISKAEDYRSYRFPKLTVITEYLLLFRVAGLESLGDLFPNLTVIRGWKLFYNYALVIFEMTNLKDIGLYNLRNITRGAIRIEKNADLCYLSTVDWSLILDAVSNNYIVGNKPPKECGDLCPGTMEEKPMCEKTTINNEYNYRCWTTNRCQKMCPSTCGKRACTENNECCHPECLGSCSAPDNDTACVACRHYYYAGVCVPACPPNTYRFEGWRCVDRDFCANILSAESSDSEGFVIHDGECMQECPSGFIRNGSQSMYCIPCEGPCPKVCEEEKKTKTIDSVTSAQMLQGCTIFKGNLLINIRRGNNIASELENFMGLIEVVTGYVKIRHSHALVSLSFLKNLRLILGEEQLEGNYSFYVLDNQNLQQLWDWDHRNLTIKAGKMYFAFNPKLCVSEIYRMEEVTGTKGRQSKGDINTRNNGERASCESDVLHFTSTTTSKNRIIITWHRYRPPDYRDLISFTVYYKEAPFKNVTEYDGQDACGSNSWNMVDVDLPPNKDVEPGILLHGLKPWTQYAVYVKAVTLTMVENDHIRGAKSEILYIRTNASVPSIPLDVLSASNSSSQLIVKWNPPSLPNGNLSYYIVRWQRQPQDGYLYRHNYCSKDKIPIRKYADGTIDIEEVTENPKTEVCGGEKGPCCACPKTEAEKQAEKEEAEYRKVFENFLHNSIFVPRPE
Insulin-like growth factor 1 receptor (Homo sapiens), sequence (P08069 741-1367 limits assumed): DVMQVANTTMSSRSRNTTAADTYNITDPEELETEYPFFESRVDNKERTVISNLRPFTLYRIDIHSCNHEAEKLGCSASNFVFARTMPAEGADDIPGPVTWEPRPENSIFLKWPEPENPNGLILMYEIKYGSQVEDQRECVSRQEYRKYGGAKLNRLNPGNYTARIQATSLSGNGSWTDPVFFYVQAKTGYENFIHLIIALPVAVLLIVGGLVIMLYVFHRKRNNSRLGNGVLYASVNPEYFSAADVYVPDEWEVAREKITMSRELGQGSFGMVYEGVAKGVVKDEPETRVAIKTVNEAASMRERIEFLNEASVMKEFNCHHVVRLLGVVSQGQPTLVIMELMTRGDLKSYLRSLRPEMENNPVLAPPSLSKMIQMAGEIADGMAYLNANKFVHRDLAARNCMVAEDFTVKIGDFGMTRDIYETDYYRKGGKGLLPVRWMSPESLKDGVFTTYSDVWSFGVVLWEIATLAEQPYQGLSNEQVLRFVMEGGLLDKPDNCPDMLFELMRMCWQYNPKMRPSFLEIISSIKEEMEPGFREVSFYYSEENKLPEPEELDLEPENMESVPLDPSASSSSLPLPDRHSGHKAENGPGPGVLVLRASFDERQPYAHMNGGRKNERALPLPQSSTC
The target in assay [4] is Vascular endothelial growth factor receptor 3 (Homo sapiens, UniProt P35916). Description: Residual activity of VEGFR3 at 1 uM by microplate scintillation counting.
Vascular endothelial growth factor receptor 3, sequence (P35916 whole entry): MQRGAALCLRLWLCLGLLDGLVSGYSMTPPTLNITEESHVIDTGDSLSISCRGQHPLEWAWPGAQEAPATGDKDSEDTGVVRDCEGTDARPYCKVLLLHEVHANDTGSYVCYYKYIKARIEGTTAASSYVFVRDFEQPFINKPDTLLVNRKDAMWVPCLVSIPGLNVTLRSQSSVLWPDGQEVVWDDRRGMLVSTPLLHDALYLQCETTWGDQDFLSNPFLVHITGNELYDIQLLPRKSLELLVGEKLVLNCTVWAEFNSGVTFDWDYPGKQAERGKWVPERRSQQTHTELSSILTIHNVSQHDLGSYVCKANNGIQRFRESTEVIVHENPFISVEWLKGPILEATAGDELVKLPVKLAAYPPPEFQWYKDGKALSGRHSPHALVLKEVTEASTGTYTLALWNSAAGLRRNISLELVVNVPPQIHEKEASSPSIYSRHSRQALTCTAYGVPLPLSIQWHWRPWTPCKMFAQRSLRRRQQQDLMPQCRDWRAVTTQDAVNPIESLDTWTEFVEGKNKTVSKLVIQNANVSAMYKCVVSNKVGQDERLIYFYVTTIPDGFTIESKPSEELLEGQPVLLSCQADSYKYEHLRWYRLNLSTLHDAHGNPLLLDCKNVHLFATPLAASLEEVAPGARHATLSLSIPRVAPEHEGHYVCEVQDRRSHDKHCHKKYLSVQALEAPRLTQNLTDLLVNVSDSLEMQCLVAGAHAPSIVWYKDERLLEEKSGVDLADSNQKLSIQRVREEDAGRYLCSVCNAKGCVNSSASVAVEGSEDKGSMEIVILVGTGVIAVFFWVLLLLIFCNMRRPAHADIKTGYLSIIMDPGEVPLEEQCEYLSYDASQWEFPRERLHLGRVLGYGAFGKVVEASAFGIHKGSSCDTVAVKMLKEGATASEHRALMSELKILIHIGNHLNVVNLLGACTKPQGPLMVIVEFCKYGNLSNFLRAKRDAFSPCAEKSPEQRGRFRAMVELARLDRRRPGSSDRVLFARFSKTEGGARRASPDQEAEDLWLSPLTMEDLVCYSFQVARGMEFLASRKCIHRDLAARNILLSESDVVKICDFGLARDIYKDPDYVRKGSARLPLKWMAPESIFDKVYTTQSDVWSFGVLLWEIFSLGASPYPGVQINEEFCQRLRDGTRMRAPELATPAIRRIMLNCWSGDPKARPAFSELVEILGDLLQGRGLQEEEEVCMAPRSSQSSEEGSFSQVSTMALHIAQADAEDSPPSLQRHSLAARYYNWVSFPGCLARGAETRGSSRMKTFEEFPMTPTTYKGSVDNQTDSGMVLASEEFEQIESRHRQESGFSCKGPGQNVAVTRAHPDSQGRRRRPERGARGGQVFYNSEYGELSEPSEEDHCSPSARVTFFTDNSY
In assay [5] the target is T2, Ephrin type-B receptor 1 (Homo sapiens) (UniProt P54762).
T2 sequence (whole entry): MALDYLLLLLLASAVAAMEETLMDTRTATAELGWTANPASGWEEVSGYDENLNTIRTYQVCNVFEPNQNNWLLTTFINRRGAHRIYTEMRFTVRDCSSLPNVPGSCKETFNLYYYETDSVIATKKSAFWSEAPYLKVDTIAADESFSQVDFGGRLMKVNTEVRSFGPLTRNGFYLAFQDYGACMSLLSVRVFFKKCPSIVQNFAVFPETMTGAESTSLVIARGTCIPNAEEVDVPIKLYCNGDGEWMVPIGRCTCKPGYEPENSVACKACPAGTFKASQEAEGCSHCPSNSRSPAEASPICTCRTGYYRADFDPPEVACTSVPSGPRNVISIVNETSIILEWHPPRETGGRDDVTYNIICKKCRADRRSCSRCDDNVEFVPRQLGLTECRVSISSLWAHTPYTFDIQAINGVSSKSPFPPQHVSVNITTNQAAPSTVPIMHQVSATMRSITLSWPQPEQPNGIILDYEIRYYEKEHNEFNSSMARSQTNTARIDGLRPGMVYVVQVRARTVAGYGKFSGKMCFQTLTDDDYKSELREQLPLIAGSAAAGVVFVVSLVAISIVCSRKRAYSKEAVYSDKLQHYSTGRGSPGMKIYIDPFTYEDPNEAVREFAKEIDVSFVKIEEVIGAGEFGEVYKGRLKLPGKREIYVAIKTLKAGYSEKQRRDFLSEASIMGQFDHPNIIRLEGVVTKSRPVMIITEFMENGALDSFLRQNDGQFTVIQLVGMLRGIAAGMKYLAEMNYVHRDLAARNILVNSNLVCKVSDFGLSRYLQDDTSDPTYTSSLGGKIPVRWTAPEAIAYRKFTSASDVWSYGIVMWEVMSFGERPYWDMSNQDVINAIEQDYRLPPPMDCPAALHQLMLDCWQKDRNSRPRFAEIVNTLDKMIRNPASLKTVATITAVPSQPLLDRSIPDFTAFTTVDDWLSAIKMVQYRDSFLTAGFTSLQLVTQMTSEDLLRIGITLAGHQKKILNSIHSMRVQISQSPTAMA
Put plainly: Residual activity of EPHB1 at 0.1 uM by microplate scintillation counting.

Assay [6] deals with Tyrosine-protein kinase CSK (Homo sapiens) (UniProt P41240). Put plainly: Residual activity of CSK at 0.1 uM by microplate scintillation counting.
Tyrosine-protein kinase CSK (Homo sapiens), sequence (P41240 2-450 limits assumed): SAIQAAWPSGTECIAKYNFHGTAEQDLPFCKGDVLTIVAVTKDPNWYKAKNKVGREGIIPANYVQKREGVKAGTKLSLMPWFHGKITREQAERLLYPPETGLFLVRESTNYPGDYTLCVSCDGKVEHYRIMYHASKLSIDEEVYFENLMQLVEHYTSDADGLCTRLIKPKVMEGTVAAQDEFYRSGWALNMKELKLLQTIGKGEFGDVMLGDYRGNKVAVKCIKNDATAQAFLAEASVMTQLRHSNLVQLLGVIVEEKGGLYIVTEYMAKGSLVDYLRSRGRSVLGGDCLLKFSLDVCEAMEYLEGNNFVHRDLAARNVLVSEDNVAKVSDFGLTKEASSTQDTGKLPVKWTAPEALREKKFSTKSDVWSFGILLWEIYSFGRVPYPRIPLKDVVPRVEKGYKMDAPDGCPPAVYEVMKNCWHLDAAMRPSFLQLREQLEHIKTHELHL
Assay [7] concerns the target Tyrosine-protein kinase JAK2 (Homo sapiens) (UniProt O60674). Description: Residual activity of JAK2 at 0.1 uM by microplate scintillation counting.
Assay [8] deals with Myosin light chain kinase 2, skeletal/cardiac muscle (Homo sapiens) (UniProt Q9H1R3). Description: Residual activity of MYLK2 at 1 uM by microplate scintillation counting.
Myosin light chain kinase 2, skeletal/cardiac muscle (Homo sapiens), sequence (Q9H1R3 whole entry): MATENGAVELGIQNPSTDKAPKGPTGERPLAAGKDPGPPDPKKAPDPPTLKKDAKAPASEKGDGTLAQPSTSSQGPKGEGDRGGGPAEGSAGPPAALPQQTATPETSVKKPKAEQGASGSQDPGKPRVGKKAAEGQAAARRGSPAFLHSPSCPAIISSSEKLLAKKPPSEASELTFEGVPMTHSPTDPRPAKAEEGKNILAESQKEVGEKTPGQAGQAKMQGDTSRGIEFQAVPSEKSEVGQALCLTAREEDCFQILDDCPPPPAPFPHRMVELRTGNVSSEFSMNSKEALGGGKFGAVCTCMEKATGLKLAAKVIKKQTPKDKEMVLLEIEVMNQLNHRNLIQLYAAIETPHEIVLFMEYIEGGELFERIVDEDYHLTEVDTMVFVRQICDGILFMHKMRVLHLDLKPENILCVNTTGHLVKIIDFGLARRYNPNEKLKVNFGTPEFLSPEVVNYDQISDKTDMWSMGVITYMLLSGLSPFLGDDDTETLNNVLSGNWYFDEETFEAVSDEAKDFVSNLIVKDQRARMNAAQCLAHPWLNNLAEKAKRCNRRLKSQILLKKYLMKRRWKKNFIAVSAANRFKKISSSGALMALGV
Assay [9] has as its target T3, Serine/threonine-protein kinase Nek2 (Homo sapiens) (UniProt P51955).
T3 sequence (whole entry): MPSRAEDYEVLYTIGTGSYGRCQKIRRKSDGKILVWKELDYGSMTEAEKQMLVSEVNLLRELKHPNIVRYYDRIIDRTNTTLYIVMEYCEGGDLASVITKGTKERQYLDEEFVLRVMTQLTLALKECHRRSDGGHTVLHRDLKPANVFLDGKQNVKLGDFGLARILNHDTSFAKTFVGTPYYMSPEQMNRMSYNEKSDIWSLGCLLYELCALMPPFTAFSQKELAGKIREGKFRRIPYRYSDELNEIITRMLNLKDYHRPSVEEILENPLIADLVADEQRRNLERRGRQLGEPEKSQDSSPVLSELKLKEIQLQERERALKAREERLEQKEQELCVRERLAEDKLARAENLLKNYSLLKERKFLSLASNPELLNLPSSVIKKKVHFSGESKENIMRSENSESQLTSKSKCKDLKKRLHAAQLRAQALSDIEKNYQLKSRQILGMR
Put plainly: Residual activity of NEK2 at 0.1 uM by microplate scintillation counting.

In assay [10] the target is Vascular endothelial growth factor receptor 1 (Homo sapiens) (UniProt P17948). Description: Residual activity of VEGFR1 at 1 uM by microplate scintillation counting.
For assay [11], the target named is T4, Mitogen-activated protein kinase 12 (Homo sapiens) (UniProt P53778).
T4 sequence (whole entry): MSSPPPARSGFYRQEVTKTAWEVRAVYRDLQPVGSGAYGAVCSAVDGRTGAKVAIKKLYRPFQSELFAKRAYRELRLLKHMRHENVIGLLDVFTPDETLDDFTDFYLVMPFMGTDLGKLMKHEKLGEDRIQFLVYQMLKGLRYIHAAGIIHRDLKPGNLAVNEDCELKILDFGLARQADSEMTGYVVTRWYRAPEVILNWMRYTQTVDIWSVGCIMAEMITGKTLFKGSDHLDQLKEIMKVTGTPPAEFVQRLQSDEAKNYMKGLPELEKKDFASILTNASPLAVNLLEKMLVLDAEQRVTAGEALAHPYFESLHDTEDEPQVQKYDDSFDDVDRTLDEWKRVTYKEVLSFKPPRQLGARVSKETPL
Description: Residual activity of p38-gamma at 0.1 uM by microplate scintillation counting.

Serine/threonine-protein kinase Chk2 (Homo sapiens), sequence (O96017 whole entry): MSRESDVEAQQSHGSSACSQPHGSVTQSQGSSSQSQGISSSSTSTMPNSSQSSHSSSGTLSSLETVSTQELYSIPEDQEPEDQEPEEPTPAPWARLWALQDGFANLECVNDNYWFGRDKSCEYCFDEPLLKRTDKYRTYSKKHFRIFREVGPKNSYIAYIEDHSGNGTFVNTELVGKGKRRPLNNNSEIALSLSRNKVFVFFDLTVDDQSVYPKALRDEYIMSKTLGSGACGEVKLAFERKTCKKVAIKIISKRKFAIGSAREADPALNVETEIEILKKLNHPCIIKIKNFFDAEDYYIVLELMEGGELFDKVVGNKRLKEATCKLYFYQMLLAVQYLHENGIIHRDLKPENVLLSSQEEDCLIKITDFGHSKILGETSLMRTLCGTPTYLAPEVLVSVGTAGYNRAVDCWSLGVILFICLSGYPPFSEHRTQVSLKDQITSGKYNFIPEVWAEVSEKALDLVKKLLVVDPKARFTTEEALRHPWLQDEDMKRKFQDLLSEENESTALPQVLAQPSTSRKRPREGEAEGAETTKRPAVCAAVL

Consider `COc1cc2c(Oc3ccc(-c4nc5ccccc5s4)cc3F)ncnc2cc1OCCCN1CCN(C)CC1`, for which the residual activity in assay [1] worked out at 92%; in [2], 91%; in assay [3] it was 113%; in assay [4] it was 30%; in assay [5], 123%; in assay [6], 104%. For the same molecule, the residual activity in assay [7] came out at 102%; in assay [8], 99%; in assay [9], 90%; in assay [10] it was 74%; in assay [11] it was 86%.
As for `COc1cc2c(Oc3ccc(-c4nc5ccccc5s4)cc3)ncnc2cc1OCCCN1CCN(C)CC1`, the residual activity in assay [1] came to 91%; in [2], 87%; in assay [3], 99%; in assay [4], 34%; in assay [5], 118%; in assay [6], 120%. Further, the residual activity in assay [7] was determined as 90%; in [8], 81%; in assay [9], 95%; in assay [10], 75%; in assay [11], 93%.
Turning to `COc1cc2c(Oc3ccc(-c4nc5ccccc5s4)cc3)ncnc2cc1OCCCN1CCCC1`, the residual activity is 88% in [1]; 88% in [2]; 114% in [3]; 32% in assay [4]; 99% in [5]; 111% in assay [6]. The residual activity in assay [7] is 92%; in assay [8], 140%; in assay [9], 94%; in assay [10], 74%; in assay [11], 86%.
